# Measurements reported in US20060069132A1, “Azolecarboxamide herbicides” (priority 2004, published 2006).
# Columns and labels:
# barnyardgrass [1] = experiment: Test A pre-/postemergence herbicide test; assay type: in vivo, Echinochloa crus-galli
# Method in brief: (§1)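 Pre: seeded sandy loam, directed soil spray, compound in non-phytotoxic solvent + surfactant. Post: 1–2-leaf plants (2–10 cm), sprayed to runoff. Greenhouse ~10 d; visual injury vs untreated, 0–100 scale.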
# large crabgrass [2] = experiment: Test A pre-/postemergence herbicide test; assay type: in vivo, Digitaria sanguinalis
# Method in brief: as §1
# giant foxtail [3] = experiment: Test A pre-/postemergence herbicide test; assay type: in vivo, Setaria faberi
# Method in brief: as §1
# morningglory [4] = experiment: Test A pre-/postemergence herbicide test; assay type: in vivo, Ipomoea spp.
# Method in brief: as §1
# redroot pigweed = experiment: Test A pre-/postemergence herbicide test; assay type: in vivo, Amaranthus retroflexus
# Method in brief: as §1
# velvetleaf [5] = experiment: Test A pre-/postemergence herbicide test; assay type: in vivo, Abutilon theophrasti
# Method in brief: as §1
# barnyardgrass [6] = experiment: Test B pre-/postemergence herbicide test; assay type: in vivo, Echinochloa crus-galli; conditions: for Barnyardgrass plant response rating: postemergence, visual rating, scale 0 (no effect) to 100 (complete control)
# Method in brief: (§2)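 Evaluation is visual, comparing treated with control plants on a scale where 0 means no effect and 100 means full control. Treatments were preemergence, or postemergence on seedlings 2–18 cm tall, and held 13–15 days in the greenhouse.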
# Surinam grass = experiment: Test B pre-/postemergence herbicide test; assay type: in vivo, Urochloa decumbens; conditions: for Surinam Grass plant response rating: postemergence, visual rating, scale 0 (no effect) to 100 (complete control)
# Method in brief: (§3)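 Herbicidal effect was judged by eye on a 0–100 scale after plants stood 13 to 15 days in the greenhouse following pre- or postemergence treatment with surfactant-containing formulations.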
# cocklebur = experiment: Test B pre-/postemergence herbicide test; assay type: in vivo, Xanthium strumarium; conditions: for Cocklebur plant response rating: postemergence, visual rating, scale 0 (no effect) to 100 (complete control)
# Method in brief: as §2
# corn = experiment: Test B pre-/postemergence herbicide test; assay type: in vivo, Zea mays; conditions: for Corn plant response rating: postemergence, visual rating, scale 0 (no effect) to 100 (complete control)
# Method in brief: as §3
# large crabgrass [7] = experiment: Test B pre-/postemergence herbicide test; assay type: in vivo, Digitaria sanguinalis; conditions: for Crabgrass, Large plant response rating: postemergence, visual rating, scale 0 (no effect) to 100 (complete control)
# Method in brief: as §3
# giant foxtail [8] = experiment: Test B pre-/postemergence herbicide test; assay type: in vivo, Setaria faberi; conditions: for Foxtail, Giant plant response rating: postemergence, visual rating, scale 0 (no effect) to 100 (complete control)
# Method in brief: as §3
# lambsquarters = experiment: Test B pre-/postemergence herbicide test; assay type: in vivo, Chenopodium album; conditions: for Lambsquarters plant response rating: postemergence, visual rating, scale 0 (no effect) to 100 (complete control)
# Method in brief: as §3
# morningglory [9] = experiment: Test B pre-/postemergence herbicide test; assay type: in vivo, Ipomoea coccinea; conditions: for Morningglory plant response rating: postemergence, visual rating, scale 0 (no effect) to 100 (complete control)
# Method in brief: as §2
# pigweed = experiment: Test B pre-/postemergence herbicide test; assay type: in vivo, Amaranthus retroflexus; conditions: for Pigweed plant response rating: postemergence, visual rating, scale 0 (no effect) to 100 (complete control)
# Method in brief: as §3
# rice [10] = experiment: Test B pre-/postemergence herbicide test; assay type: in vivo, Oryza sativa; conditions: preemergence
# Method in brief: as §3
# velvetleaf [11] = experiment: Test B pre-/postemergence herbicide test; assay type: in vivo, Abutilon theophrasti; conditions: for Velvetleaf plant response rating: postemergence, visual rating, scale 0 (no effect) to 100 (complete control)
# Method in brief: as §3
# blackgrass = experiment: Test B postemergence herbicide test; assay type: in vivo, Alopecurus myosuroides; conditions: postemergence, visual rating, scale 0 (no effect) to 100 (complete control)
# Method in brief: (§4)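 Each value is a visual 0–100 response rating taken against controls 13 to 15 days after treatment in the greenhouse. Plants received formulated chemical postemergence at the 1- to 4-leaf stage or, in flooded paddy, at the 2-leaf stage.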
# wheat = experiment: Test B postemergence herbicide test; assay type: in vivo, Triticum aestivum; design: key to Wheat plant response rating: 0 = no effect, 100 = complete control; conditions: postemergence, visual rating, scale 0 (no effect) to 100 (complete control)
# Method in brief: as §4
# wild oat = experiment: Test B postemergence herbicide test; assay type: in vivo, Avena fatua; conditions: postemergence, visual rating, scale 0 (no effect) to 100 (complete control)
# Method in brief: as §4
# rice [12] = experiment: Test B flooded paddy test; assay type: in vivo, Oryza sativa; conditions: 1000 g ai/ha, visual rating, scale 0 to 100 (0 no effect, 100 complete control), 13 to 15 days
# Method in brief: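 Treated at 2-leaf (paddy) or 1–4-leaf, 2–18 cm (postemergence); greenhouse 13–15 d; visual score vs control, 0 none to 100 complete control; dash = not tested.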
# [13] = test system: small flower umbrella sedge; experiment: Test B flooded paddy test; assay type: in vivo, Cyperus difformis; conditions: 1000 g ai/ha, visual rating, scale 0 to 100 (0 no effect, 100 complete control), 13 to 15 days
# Method in brief: as §4
# ducksalad = experiment: Test B flooded paddy test; assay type: in vivo, Heteranthera limosa; conditions: 1000 g ai/ha, visual rating, scale 0 to 100 (0 no effect, 100 complete control), 13 to 15 days
# Method in brief: as §4
# barnyardgrass [14] = experiment: Test B flooded paddy test; assay type: in vivo, Echinochloa crus-galli; conditions: 1000 g ai/ha, visual rating, scale 0 to 100 (0 no effect, 100 complete control), 13 to 15 days
# Method in brief: as §4
# [15] = Postemergence, 500 g ai/ha, 0 to 100 scale, 0 no effect, 100 complete control
# [16] = Postemergence, 2000 g ai/ha, 0 to 100 scale, 0 no effect, 100 complete control
# [17] = Preemergence, 2000 g ai/ha, visual rating, 0 to 100 scale (0 no effect, 100 complete control)
# [18] = preemergence, 500 g ai/ha, visual injury, 0 to 100 scale (0 no effect, 100 complete control)
# [19] = 125 g ai/ha, 0 = no effect, 100 = complete control, preemergence
# [20] = 500 g ai/ha, visual rating 0-100, 0 no effect, 100 complete control, preemergence
smiles,measurement,setting,value
COC(=O)c1cccc(NC(=O)c2sc(C(C)(C)C)nc2C)c1 [Compound 197],Barnyardgrass plant response rating,barnyardgrass [1]; [15],10
same,"Plant response rating, Barnyardgrass",barnyardgrass [1]; [16],0
same,Barnyardgrass plant response rating,barnyardgrass [1]; [17],0
same,Barnyardgrass plant response rating,barnyardgrass [1]; [18],0
same,"Crabgrass, Large plant response rating",large crabgrass [2]; [15],5
same,"Plant response rating, Crabgrass, Large",large crabgrass [2]; [16],10
same,"Crabgrass, Large plant response rating",large crabgrass [2]; [17],0
same,"Crabgrass, Large plant response rating",large crabgrass [2]; [18],0
same,"Foxtail, Giant plant response rating",giant foxtail [3]; [15],0
same,"Plant response rating, Foxtail, Giant",giant foxtail [3]; [16],5
same,"Foxtail, Giant plant response rating",giant foxtail [3]; [17],0
same,"Foxtail, Giant plant response rating",giant foxtail [3]; [18],0
same,Morningglory plant response rating,morningglory [4]; [15],0
same,"Plant response rating, Morningglory",morningglory [4]; [16],0
same,Morningglory plant response rating,morningglory [4]; [17],5
same,Morningglory plant response rating,morningglory [4]; [18],0
same,Pigweed plant response rating,redroot pigweed; [15],0
same,"Plant response rating, Pigweed",redroot pigweed; [16],5
same,Pigweed plant response rating,redroot pigweed; [17],0
same,Pigweed plant response rating,redroot pigweed; [18],0
same,Velvetleaf plant response rating,velvetleaf [5]; [15],5
same,"Plant response rating, Velvetleaf",velvetleaf [5]; [16],5
same,Velvetleaf plant response rating,velvetleaf [5]; [17],10
same,Velvetleaf plant response rating,velvetleaf [5]; [18],0
same,Barnyardgrass plant response rating (0 to 100 scale),barnyardgrass [6]; [19],0
same,"Plant response rating, Barnyardgrass",barnyardgrass [6]; [20],10
same,Barnyardgrass plant response rating,barnyardgrass [6]; 125 g ai/ha,0
same,Barnyardgrass plant response rating,barnyardgrass [6]; 500 g ai/ha,10
same,Surinam Grass plant response rating (0 to 100 scale),Surinam grass; [19],0
same,"Plant response rating, Surinam Grass",Surinam grass; [20],20
same,Surinam Grass plant response rating,Surinam grass; 125 g ai/ha,10
same,Surinam Grass plant response rating,Surinam grass; 500 g ai/ha,20
same,Cocklebur plant response rating (0 to 100 scale),cocklebur; [19],0
same,"Plant response rating, Cocklebur",cocklebur; [20],0
same,Cocklebur plant response rating,cocklebur; 125 g ai/ha,0
same,Cocklebur plant response rating,cocklebur; 500 g ai/ha,10
same,Corn plant response rating (0 to 100 scale),corn; [19],0
same,"Plant response rating, Corn",corn; [20],0
same,Corn plant response rating,corn; 125 g ai/ha,10
same,Corn plant response rating,corn; 500 g ai/ha,20
same,"Crabgrass, Large plant response rating (0 to 100 scale)",large crabgrass [7]; [19],0
same,"Plant response rating, Crabgrass, Large",large crabgrass [7]; [20],0
same,"Crabgrass, Large plant response rating",large crabgrass [7]; 125 g ai/ha,0
same,"Crabgrass, Large plant response rating",large crabgrass [7]; 500 g ai/ha,0
same,"Foxtail, Giant plant response rating (0 to 100 scale)",giant foxtail [8]; [19],0
same,"Plant response rating, Foxtail, Giant",giant foxtail [8]; [20],0
same,"Foxtail, Giant plant response rating",giant foxtail [8]; 125 g ai/ha,0
same,"Foxtail, Giant plant response rating",giant foxtail [8]; 500 g ai/ha,0
same,Lambsquarters plant response rating (0 to 100 scale),lambsquarters; [19],0
same,"Plant response rating, Lambsquarters",lambsquarters; [20],0
same,Lambsquarters plant response rating,lambsquarters; 125 g ai/ha,0
same,Lambsquarters plant response rating,lambsquarters; 500 g ai/ha,0
same,Morningglory plant response rating (0 to 100 scale),morningglory [9]; [19],0
same,"Plant response rating, Morningglory",morningglory [9]; [20],0
same,Morningglory plant response rating,morningglory [9]; 125 g ai/ha,0
same,Morningglory plant response rating,morningglory [9]; 500 g ai/ha,0
same,Pigweed plant response rating (0 to 100 scale),pigweed; [19],0
same,"Plant response rating, Pigweed",pigweed; [20],0
same,Pigweed plant response rating,pigweed; 125 g ai/ha,0
same,Pigweed plant response rating,pigweed; 500 g ai/ha,10
same,Rice plant response rating (0 to 100 scale),"rice [10]; 125 g ai/ha, 0 = no effect, 100 = complete control",0
same,"Plant response rating, Rice","rice [10]; 500 g ai/ha, visual rating 0-100, 0 no effect, 100 complete control",0
same,Velvetleaf plant response rating (0 to 100 scale),velvetleaf [11]; [19],0
same,"Plant response rating, Velvetleaf",velvetleaf [11]; [20],0
same,Velvetleaf plant response rating,velvetleaf [11]; 125 g ai/ha,0
same,Velvetleaf plant response rating,velvetleaf [11]; 500 g ai/ha,20
same,Blackgrass plant response rating,blackgrass; 125 g ai/ha,0
same,Blackgrass plant response rating,blackgrass; 500 g ai/ha,0
same,Wheat plant response rating,wheat; 125 g ai/ha,0
same,Wheat plant response rating,wheat; 500 g ai/ha,10
same,"Oat, Wild plant response rating",wild oat; 125 g ai/ha,10
same,"Oat, Wild plant response rating",wild oat; 500 g ai/ha,30
same,Rice plant response rating,rice [12],0
same,"Sedge, Umbrella plant response rating",[13],0
same,Ducksalad plant response rating,ducksalad,0
same,Barnyardgrass plant response rating,barnyardgrass [14],0
